For assay [1], the target named is T1, Protein farnesyltransferase subunit beta/geranylgeranyltransferase type-1 subunit alpha (Saccharomyces cerevisiae (strain ATCC 204508 / S288c), UniProt P22007+P29703).
T1 sequence (P22007 whole entry): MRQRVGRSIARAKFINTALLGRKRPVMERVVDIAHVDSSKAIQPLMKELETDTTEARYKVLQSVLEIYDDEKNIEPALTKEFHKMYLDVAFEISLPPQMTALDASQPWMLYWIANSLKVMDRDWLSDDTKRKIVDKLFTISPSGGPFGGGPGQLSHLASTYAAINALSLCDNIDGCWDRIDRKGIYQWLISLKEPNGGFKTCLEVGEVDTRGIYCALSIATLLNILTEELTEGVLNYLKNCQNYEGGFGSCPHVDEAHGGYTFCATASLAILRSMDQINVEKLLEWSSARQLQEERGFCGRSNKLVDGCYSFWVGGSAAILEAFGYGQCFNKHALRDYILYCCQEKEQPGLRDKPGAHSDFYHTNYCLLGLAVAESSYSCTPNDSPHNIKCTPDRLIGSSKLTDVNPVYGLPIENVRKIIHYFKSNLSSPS
T1 sequence (P29703 whole entry): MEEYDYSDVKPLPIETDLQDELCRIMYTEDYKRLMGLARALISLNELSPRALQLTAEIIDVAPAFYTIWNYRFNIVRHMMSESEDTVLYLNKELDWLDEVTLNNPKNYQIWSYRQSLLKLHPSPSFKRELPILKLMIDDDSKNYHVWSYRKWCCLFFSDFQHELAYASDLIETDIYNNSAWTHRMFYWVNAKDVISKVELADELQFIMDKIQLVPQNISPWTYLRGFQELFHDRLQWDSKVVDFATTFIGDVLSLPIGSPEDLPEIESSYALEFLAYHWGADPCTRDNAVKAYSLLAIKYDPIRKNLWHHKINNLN
Briefly: Yeast FTase Assay. As to conditions: pH 7.5. The method, then:
Assays were realized on 96-well plates, prepared with Biomek NKMC and Biomek 3000 from Beckman Coulter and read on Wallac Victor fluorimeter from Perkin-Elmer. Per well, 20 μL of farnesyl pyrophosphate (10 μM) was added to 180 μL of a solution containing 2 μL of varied concentrations of potential inhibitors (dissolved in DMSO) and 178 μL of a solution composed by 0.1 mL of partially purified recombinant yeast FTase (2.2 mg/ mL) and 7.0 mL of dansyl-GCVLS peptide (in the following buffer: 5.8 mM DTT, 6 mM MgCl2, 12 μM ZnCl2 and 0.09% (w/v) CHAPS, 53 mM Tris/HCl, pH 7.5). Then the fluorescence development was recorded for 15 min(0.7 second per well, 20 repeats) at 30°C with an excitation filter at 340 nm and an emission filter at 486 nm. Each measurement was realized twice as duplicate ortriplicate.

For assay [2], the target named is T2, Protein farnesyltransferase alpha subunit/subunit beta (Trypanosoma brucei brucei, UniProt Q9NC76+Q9NC77).
T2 sequence (Q9NC77 whole entry): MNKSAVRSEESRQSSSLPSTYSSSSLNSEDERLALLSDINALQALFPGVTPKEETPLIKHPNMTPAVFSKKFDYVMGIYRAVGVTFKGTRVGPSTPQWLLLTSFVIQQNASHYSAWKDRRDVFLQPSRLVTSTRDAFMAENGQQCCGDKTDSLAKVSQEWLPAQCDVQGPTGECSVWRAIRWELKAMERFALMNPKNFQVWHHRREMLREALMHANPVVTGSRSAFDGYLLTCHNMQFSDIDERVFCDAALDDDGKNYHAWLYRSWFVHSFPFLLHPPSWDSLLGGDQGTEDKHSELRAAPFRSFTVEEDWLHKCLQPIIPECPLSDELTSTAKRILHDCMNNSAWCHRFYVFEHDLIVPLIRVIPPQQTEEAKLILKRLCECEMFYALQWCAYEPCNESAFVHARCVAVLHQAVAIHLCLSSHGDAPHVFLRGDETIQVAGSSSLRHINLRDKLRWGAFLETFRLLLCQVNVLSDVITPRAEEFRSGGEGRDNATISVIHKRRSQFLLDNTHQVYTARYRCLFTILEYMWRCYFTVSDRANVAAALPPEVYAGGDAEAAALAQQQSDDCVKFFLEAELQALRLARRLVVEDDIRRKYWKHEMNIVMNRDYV
T2 sequence (Q9NC76 whole entry): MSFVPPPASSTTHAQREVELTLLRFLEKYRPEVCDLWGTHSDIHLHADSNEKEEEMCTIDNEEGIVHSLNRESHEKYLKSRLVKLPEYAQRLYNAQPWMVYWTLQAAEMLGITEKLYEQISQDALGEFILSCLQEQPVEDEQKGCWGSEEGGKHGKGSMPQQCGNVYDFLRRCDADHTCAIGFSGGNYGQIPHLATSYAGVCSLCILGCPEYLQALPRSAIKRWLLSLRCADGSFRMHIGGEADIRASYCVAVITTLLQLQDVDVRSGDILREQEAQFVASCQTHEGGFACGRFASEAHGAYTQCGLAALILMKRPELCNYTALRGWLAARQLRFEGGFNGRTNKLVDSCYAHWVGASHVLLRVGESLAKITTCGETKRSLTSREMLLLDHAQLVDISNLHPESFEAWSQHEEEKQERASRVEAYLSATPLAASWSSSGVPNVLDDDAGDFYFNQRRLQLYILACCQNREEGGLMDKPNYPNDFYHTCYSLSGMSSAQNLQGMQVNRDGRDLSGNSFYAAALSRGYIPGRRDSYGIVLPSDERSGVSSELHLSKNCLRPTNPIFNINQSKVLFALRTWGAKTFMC
Briefly: T. brucei FTase Assay. The method, then: Assays were realized on 96-well plates, as described for human FTase with the dansylated peptide Dansyl-GCAIM and the solution contains 15 μL of partially purified Tb-FTase (1.0 mg/mL) in 1 mL peptide solution.

Assay [3] concerns the target Protein farnesyltransferase subunit beta/geranylgeranyltransferase type-1 subunit alpha (Homo sapiens, UniProt P49354+P49356). As to the kind of experiment: Human FTase Assay.
Description: Assays were realized on 96-well plates, as described for yeast FTase but octyl-D-glucopyranoside (0.18%) was used instead of CHAPS and the solution contains 5 μLof partially purified human FTase (1.5 mg/mL)7 in 1 mL peptide solution.

Molecules are shown by their SMILES. Some results are limits rather than exact numbers.

Regarding `COc1cccc(-c2c(C(=O)O)sc(SC(C)C)c2C#N)c1` [3-(3-Methoxyphenyl)-4-cyano-5-(isopropylthio)thiophene-2-carboxylic acid (1k)], the IC50 in assay [1] stood at 1.6 µM; in assay [2] it was 18 µM.

For the molecule `Cc1cccc(-c2c(C(=O)O)sc(SC(C)C)c2C#N)c1` [3-(3-Tolyl)-4-cyano-5-(isopropylthio)thiophene-2-carboxylic acid (1u)], the results for the 50% inhibitory concentration (IC50) in assay [1], in assay [3] and in assay [2] were 1.4 µM, 16 µM and 34 µM, respectively.

`CC(C)Sc1sc(C(=O)O)c(-c2ccccc2)c1C#N` [3-Phenyl-4-cyano-5-(isopropylthio)thiophene-2-carboxylic acid (1s)]: the IC50 came out at 0.61 µM in assay [1], 34 µM in assay [3] and 42 µM in assay [2].

For the molecule `COC(=O)c1cccc(-c2c(C(=O)O)sc(SC(C)C)c2C#N)c1` [3-(3-(Methoxycarbonyl)phenyl)-4-cyano-5-(isopropylthio)thiophene-2-carboxylic acid (1q)], the IC50 in assay [1] was found to be 0.62 µM; in assay [3], 7 µM; in assay [2], 6.9 µM.

As for `CC(C)Sc1sc(C(=O)O)c(-c2ccccc2F)c1C#N` [3-(2-Fluorophenyl)-4-cyano-5-(isopropylthio)thiophene-2-carboxylic acid (1f)], the results for the IC50 in assay [1], in assay [3] and in assay [2] were 1.3 µM, > 50 µM and 46 µM, respectively.

On to `CC(C)Sc1sc(C(=O)O)c(-c2cccc3ccccc23)c1C#N` [3-(1-Naphthyl)-4-cyano-5-(isopropylthio)thiophene-2-carboxylic acid (1x)], for which the figures for the IC50 in assay [1], in assay [3] and in assay [2] were 1.1 µM, 32 µM and 10.5 µM, respectively.

`CSCC[C@H](NC(=O)c1ccc(NC[C@@H](N)CS)cc1-c1ccccc1)C(=O)O` [2-{[5-((R)-2-Amino-3-mercapto-propylamino)-biphenyl-2-carbonyl]-amino}-4-methylsulfanyl-butyric acid]: the IC50 in assay [1] was 0.00078 µM; in assay [2] it was 0.01 µM.

In turn, `CC(C)Sc1sc(C(=O)O)c(-c2ccc(C(F)(F)F)cc2)c1C#N` [3-(4-(Trifluoromethyl)phenyl)-4-cyano-5-(isopropylthio)thiophene-2-carboxylic acid (1g)] yielded an IC50 in assay [1] of 0.58 µM.

Take `CC(C)Sc1sc(C(=O)O)c(-c2ccccc2Cl)c1C#N` [3-(2-Chlorophenyl)-4-cyano-5-(isopropylthio)thiophene-2-carboxylic acid (1c)]: the results for the IC50 in assay [1], in assay [3] and in assay [2] were 1.4 µM, > 50 µM and 37 µM, respectively.

With `CC(C)Sc1sc(C(=O)O)c(-c2cccc3oc4ccccc4c23)c1C#N` [3-(1-Dibenzofuranyl)-4-cyano-5-(isopropylthio)thiophene-2-carboxylic acid (1gg)], the IC50 in assay [1] was found to be 1 µM; in assay [3], 15 µM; in assay [2], 3.3 µM.

Turning to `COc1ccccc1-c1c(C(=O)O)sc(SC(C)C)c1C#N` [3-(2-Methoxyphenyl)-4-cyano-5-(isopropylthio)thiophene-2-carboxylic acid (1l)], the figures for the IC50 in assay [1], in assay [3] and in assay [2] were 9.7 µM, > 50 µM and 37 µM, respectively.

Regarding `CC(C)Sc1sc(C(=O)O)c(-c2cccc(-c3ccccc3)c2)c1C#N` [3-(3-Biphenyl)-4-cyano-5-(isopropylthio)thiophene-2-carboxylic acid (1aa)], the IC50 in assay [1] was 0.64 µM; in assay [3], 3.3 µM; in assay [2], 5.4 µM.

`CC(C)Sc1sc(C(=O)O)c(-c2cccc(F)c2)c1C#N` [3-(3-Fluorophenyl)-4-cyano-5-(isopropylthio)thiophene-2-carboxylic acid (1e)]: the IC50 came to 0.46 µM in assay [1], 23 µM in assay [3] and 32 µM in assay [2].

For the molecule `Cc1ccccc1-c1c(C(=O)O)sc(SC(C)C)c1C#N` [3-(2-Tolyl)-4-cyano-5-(isopropylthio)thiophene-2-carboxylic acid (1v)], the figures for the IC50 in assay [1], in assay [3] and in assay [2] were 3.1 µM, > 50 µM and > 50 µM, respectively.

For the molecule `CC(C)Sc1sc(C(=O)O)c(-c2ccc(Cl)cc2)c1C#N` [3-(4-Chlorophenyl)-4-cyano-5-(isopropylthio)thiophene-2-carboxylic acid (1a)], the IC50 in assay [1] was found to be 0.11 µM; in assay [2], 10.6 µM.

On to `CC(C)Sc1sc(C(=O)O)c(-c2ccc3ccccc3c2)c1C#N` [3-(2-Naphthyl)-4-cyano-5-(isopropylthio)thiophene-2-carboxylic acid (1y)], for which the IC50 came to 0.32 µM in assay [1], 4.8 µM in assay [3] and 9.7 µM in assay [2].

Take `CC(C)Sc1sc(C(=O)O)c(-c2ccc(-c3ccccc3)cc2)c1C#N` [3-(4-Biphenyl)-4-cyano-5-(isopropylthio)thiophene-2-carboxylic acid (1z)]: the figures for the IC50 in assay [1], in assay [3] and in assay [2] were 2.7 µM, 5.5 µM and 32 µM, respectively.

Consider `COc1ccc(-c2c(C(=O)O)sc(SC(C)C)c2C#N)cc1` [3-(4-Methoxyphenyl)-4-cyano-5-(isopropylthio)thiophene-2-carboxylic acid (1j)], for which the results for the IC50 in assay [1] and in assay [2] were 0.25 µM and 8.6 µM, respectively.

Regarding `CC(C)Sc1sc(C(=O)O)c(-c2cccc(C(F)(F)F)c2)c1C#N` [3-(3-(Trifluoromethyl)phenyl)-4-cyano-5-(isopropylthio)thiophene-2-carboxylic acid (1h)], the figures for the IC50 in assay [1], in assay [3] and in assay [2] were 1.6 µM, 34 µM and 19 µM, respectively.

For `COC(=O)c1ccc(-c2c(C(=O)O)sc(SC(C)C)c2C#N)cc1` [3-(4-(Methoxycarbonyl)phenyl)-4-cyano-5-(isopropylthio)thiophene-2-carboxylic acid (1p)], the values for the IC50 in assay [1], in assay [3] and in assay [2] were 0.085 µM, 12.8 µM and 14 µM, respectively.

Consider `CC(C)Sc1sc(C(=O)O)c(-c2ccc(F)cc2)c1C#N` [3-(4-Fluorophenyl)-4-cyano-5-(isopropylthio)thiophene-2-carboxylic acid (1d)], for which the IC50 turned out to be 0.27 µM in assay [1], 20 µM in assay [3] and 29 µM in assay [2].

On to `Cc1ccc(-c2c(C(=O)O)sc(SC(C)C)c2C#N)cc1` [3-(4-Tolyl)-4-cyano-5-(isopropylthio)thiophene-2-carboxylic acid (1t)], for which the IC50 in assay [1] was determined as 0.19 µM; in assay [3], 21 µM; in assay [2] it was 17 µM.

Broadly, the IC50 is the concentration that inhibits the measured activity by half.

Values taken from BindingDB's records for doi:10.3109/14756366.2011.643302 (Centre de Recherche de Gif, 2013).
